According to ChEMBL document CHEMBL1158650, “Isolation in High Yield of Citrinin From Penicillium odoratum and of Mycophenolic Acid From Penicillium brunneo-stoloniferum” (1979):
Converted amounts (≈) assume the structure as drawn.

Experiments:
Type in all cases: functional
Alternaria = test: Antifungal activity against Alternaria maritima IFO 8618 by twofold dilution method
Fusarium graminearum = test: Antifungal activity against Gibberella zeae IFO 4474 by twofold dilution method
Bacillus subtilis = test: Antibacterial activity against Bacillus subtilis IFO 3108 by twofold dilution method

## COc1c(C)c2c(c(O)c1C/C=C(\C)CCC(=O)O)C(=O)OC2 [MYCOPHENOLIC ACID]
Alternaria
  MIC: 200 µg/mL (≈ 624 µM)
Fusarium graminearum
  MIC: 200 µg/mL (≈ 624 µM)

## CC1=C2C(=CO[C@H](C)[C@H]2C)C(O)=C(C(=O)O)C1=O [CITRININ]
Bacillus subtilis
  MIC: 25 µg/mL (≈ 99.9 µM)
